Data reported in ChEMBL document CHEMBL1153384, “Synthesis, antimalarial activity, and preclinical pharmacology of a novel series of 4'-fluoro and 4'-chloro analogues of amodiaquine. Identification of a suitable "back-up" compound for N-tert-butyl isoquine” (J Med Chem, 2009).

What was measured:
Plasmodium falciparum [1] = test: Antimalarial activity against chloroquine-sensitive Plasmodium falciparum 3D7; assay type: functional, organism-based
[2] = Clearance in iv dosed mouse; assay type: ADME, organism-based; conditions: in vivo
[3] = Clearance in iv dosed rat; assay type: ADME, organism-based; conditions: in vivo
[4] = Oral bioavailability in mouse; assay type: ADME, organism-based; conditions: in vivo
[5] = Oral bioavailability in rat; assay type: ADME, organism-based; conditions: in vivo
Plasmodium yoelii [6] = test: Antimalarial activity as reduced parasitaemia against Plasmodium yoelii 17X infected CD1 mice (Mus musculus) perorally dosed daily for 4 days; assay type: functional; conditions: po, 96 h
Plasmodium yoelii [7] = test: Antimalarial activity as minimal concentration for parasite elimination at day 23 against Plasmodium yoelii 17X intravenously inoculated CD1 mice (Mus musculus) dosed 1 hrs post infection then daily for 4 days
Plasmodium falciparum [8] = test: Antimalarial activity against chloroquine-resistant Plasmodium falciparum TM6; assay type: functional, organism-based
Plasmodium falciparum [9] = test: Antimalarial activity against chloroquine-sensitive Plasmodium falciparum HB3; assay type: functional, organism-based
Cytochrome P450 3A4 [10] = target: T1, Cytochrome P450 3A4 (Homo sapiens, UniProt P08684); test: Inhibition of human CYP3A4 using DEF substrate; assay type: ADME
T1 sequence (P08684 whole entry): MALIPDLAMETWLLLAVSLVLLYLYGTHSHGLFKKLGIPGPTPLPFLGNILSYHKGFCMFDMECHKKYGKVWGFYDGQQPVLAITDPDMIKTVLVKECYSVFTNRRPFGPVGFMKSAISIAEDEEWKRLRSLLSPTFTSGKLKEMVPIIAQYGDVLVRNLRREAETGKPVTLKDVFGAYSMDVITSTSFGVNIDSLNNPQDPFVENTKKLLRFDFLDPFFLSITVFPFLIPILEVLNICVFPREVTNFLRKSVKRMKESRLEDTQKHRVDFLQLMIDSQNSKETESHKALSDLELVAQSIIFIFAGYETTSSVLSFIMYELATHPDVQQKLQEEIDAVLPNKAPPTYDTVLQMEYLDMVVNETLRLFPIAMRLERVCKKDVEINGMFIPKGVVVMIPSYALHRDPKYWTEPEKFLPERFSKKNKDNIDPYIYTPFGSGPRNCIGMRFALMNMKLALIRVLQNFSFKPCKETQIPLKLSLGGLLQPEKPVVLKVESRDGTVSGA

Cytochrome P450 3A4 [11] = target: T1, Cytochrome P450 3A4; test: Inhibition of human CYP3A4 using PPR substrate; assay type: ADME; conditions: read-out: IC50
Cytochrome P450 1A2 = target: T2, Cytochrome P450 1A2 (Homo sapiens, UniProt P05177); test: Inhibition of human CYP1A2; assay type: ADME
T2 sequence (P05177 whole entry): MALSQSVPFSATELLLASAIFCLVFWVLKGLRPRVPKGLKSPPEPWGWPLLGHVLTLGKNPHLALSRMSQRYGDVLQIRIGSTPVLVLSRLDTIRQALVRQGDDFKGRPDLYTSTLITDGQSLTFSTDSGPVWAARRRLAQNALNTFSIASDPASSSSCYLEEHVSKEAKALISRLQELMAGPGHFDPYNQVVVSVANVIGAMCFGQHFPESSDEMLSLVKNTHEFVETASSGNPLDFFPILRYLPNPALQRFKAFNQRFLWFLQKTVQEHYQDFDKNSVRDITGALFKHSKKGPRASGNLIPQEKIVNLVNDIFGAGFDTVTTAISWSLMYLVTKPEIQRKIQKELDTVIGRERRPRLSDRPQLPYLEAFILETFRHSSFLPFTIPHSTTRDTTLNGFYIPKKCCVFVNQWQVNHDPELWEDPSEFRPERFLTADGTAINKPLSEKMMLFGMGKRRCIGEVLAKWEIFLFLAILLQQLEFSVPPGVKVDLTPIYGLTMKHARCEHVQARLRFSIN

Cytochrome P450 2D6 = Cytochrome P450 2D6 (Homo sapiens, UniProt P10635); test: Inhibition of human CYP2D6; assay type: ADME
Cytochrome P450 2D6, sequence (P10635 whole entry): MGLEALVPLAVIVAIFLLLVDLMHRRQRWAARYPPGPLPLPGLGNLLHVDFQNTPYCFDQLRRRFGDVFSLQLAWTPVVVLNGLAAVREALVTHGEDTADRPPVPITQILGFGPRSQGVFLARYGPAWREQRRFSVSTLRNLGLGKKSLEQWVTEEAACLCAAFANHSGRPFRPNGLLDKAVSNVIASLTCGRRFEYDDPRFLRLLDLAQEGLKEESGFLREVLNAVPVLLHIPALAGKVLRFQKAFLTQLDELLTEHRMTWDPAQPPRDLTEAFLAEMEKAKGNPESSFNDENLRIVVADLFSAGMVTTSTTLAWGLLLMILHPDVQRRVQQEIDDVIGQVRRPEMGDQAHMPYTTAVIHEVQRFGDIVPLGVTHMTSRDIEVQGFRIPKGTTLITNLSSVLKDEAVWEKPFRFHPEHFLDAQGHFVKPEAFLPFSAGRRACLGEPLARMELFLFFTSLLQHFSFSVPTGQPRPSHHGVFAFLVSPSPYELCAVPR

Cytochrome P450 2C8 = target: T3, Cytochrome P450 2C8 (Homo sapiens, UniProt P10632); test: Inhibition of human CYP2C8; assay type: ADME
T3 sequence (P10632 whole entry): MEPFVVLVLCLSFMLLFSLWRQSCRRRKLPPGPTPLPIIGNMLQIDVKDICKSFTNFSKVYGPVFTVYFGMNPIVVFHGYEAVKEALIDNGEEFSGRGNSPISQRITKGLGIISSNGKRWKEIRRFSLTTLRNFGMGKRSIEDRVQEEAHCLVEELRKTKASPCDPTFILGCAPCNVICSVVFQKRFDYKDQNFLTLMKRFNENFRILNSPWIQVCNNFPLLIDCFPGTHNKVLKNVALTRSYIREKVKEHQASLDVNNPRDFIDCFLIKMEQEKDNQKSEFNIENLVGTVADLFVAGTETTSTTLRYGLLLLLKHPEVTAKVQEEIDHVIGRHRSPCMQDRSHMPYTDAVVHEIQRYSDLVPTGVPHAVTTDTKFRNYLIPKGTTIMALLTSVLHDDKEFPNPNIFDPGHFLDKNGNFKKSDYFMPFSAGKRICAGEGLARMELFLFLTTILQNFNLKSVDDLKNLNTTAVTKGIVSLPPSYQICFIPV

Cytochrome P450 2C9 = Cytochrome P450 2C9 (Homo sapiens, UniProt P11712); test: Inhibition of human CYP2C9; assay type: ADME
Cytochrome P450 2C9, sequence (P11712 whole entry): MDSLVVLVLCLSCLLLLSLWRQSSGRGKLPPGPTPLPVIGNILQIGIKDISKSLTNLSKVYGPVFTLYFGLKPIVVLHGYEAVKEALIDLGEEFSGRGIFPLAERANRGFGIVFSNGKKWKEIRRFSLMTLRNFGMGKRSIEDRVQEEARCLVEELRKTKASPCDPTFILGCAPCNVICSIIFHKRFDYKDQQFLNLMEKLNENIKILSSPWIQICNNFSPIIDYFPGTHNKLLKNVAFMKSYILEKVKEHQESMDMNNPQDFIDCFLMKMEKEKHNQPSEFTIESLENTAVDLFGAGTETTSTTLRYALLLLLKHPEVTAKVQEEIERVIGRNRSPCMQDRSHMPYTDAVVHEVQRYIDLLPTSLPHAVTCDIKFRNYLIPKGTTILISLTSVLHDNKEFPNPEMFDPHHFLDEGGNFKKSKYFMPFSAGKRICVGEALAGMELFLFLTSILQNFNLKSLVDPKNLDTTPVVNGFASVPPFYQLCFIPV

Cytochrome P450 2C19 = Cytochrome P450 2C19 (Homo sapiens, UniProt P33261); test: Inhibition of human CYP2C19; assay type: ADME
Cytochrome P450 2C19, sequence (P33261 whole entry): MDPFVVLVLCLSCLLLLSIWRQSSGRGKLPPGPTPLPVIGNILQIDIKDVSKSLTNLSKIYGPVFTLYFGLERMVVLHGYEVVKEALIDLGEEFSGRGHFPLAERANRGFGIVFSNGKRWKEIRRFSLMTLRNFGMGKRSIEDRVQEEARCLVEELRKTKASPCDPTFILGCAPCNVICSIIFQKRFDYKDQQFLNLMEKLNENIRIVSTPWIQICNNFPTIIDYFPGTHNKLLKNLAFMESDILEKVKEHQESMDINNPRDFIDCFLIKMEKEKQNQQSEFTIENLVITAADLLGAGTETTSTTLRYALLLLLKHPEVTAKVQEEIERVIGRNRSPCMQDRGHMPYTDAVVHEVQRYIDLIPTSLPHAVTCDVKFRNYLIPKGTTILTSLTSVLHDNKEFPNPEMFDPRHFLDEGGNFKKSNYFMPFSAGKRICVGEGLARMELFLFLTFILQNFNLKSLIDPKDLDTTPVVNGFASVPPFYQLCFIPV

[12] = Partition coefficient, log P of the compound; assay type: physicochemical; conditions: octanol/water
[13] = target: β-hematin formation (no protein target); test: Inhibition of beta-hematin formation as molar equivalent relative to hemin causing blockade in BHIA
Heme [14] = test: Binding affinity to heme assessed as binding constant for stepwise binding of 2 equivalent of drug to 1 molecule of heme in presence of 40% DMSO by UV-visible spectroscopy
Heme [15] = test: Binding affinity to heme assessed as binding constant for stepwise binding of 2 molecules of heme to 1 equivalent of drug in presence of 40% DMSO by UV-visible spectroscopy

Question: With `Fc1ccc(Nc2ccnc3cc(Cl)ccc23)cc1CN1CCCCC1` as the molecule, how does the IC50 (Plasmodium falciparum [1]) read?
Answer: 33.2 nM

Question: For `CCNCc1ccc(Nc2ccnc3cc(Cl)ccc23)cc1O` [DESETHYL ISOQUINE], which clearance [2] is on record?
Answer: 43.5 mL/min/kg

Question: What about the clearance [3] of the same molecule?
Answer: 61.5 mL/min/kg

Question: What about the bioavailability [4] of the same molecule?
Answer: 100%

Question: And the bioavailability [5]?
Answer: 60%

Question: And the ED50 (Plasmodium yoelii [6])?
Answer: 5.5 mg/kg

Question: What about the ED90 (Plasmodium yoelii [6]) of the same molecule?
Answer: 8 mg/kg

Question: And the Activity (Plasmodium yoelii [7])?
Answer: >40 mg/kg

Question: With `CC(C)(C)NCc1ccc(Nc2ccnc3cc(Cl)ccc23)cc1O` as the molecule, how does the IC50 (Plasmodium falciparum [1]) read?
Answer: 6 nM

Question: Which IC50 (Plasmodium falciparum [1]) does the source give for `Clc1ccc2c(Nc3ccc(Cl)c(CN4CCN(c5ccccn5)CC4)c3)ccnc2c1` here?
Answer: 27.2 nM

Question: What about the IC50 (Plasmodium falciparum [8]) of the same molecule?
Answer: 500 nM

Question: And the IC50 (Plasmodium falciparum [9])?
Answer: 485 nM

Question: What does the source list for `CN1CCN(Cc2cc(Nc3ccnc4cc(Cl)ccc34)ccc2Cl)CC1`?
Answer: IC50 (Plasmodium falciparum [1]): 86.8 nM; IC50 (Plasmodium falciparum [8]): 24.4 nM; IC50 (Plasmodium falciparum [9]): 54.5 nM

Question: With `CCNCc1cc(Nc2ccnc3cc(Cl)ccc23)ccc1O` [DESETHYL AMODIAQUINE] as the molecule, how does the IC50 (Cytochrome P450 3A4 [10]) read?
Answer: 24000 nM

Question: And the IC50 (Cytochrome P450 3A4 [11])?
Answer: > 100000 nM

Question: What about the IC50 (Cytochrome P450 1A2) of the same molecule?
Answer: 28000 nM

Question: What about the IC50 (Cytochrome P450 2D6) of the same molecule?
Answer: 6400 nM

Question: And the IC50 (Cytochrome P450 2C8)?
Answer: 20000 nM

Question: What about the IC50 (Cytochrome P450 2C9) of the same molecule?
Answer: 58000 nM

Question: And the IC50 (Cytochrome P450 2C19)?
Answer: 54000 nM

Question: For `CCN(CC)Cc1cc(Nc2ccnc3cc(Cl)ccc23)ccc1F`, which IC50 (Plasmodium falciparum [1]) is on record?
Answer: 27.3 nM

Question: Which IC50 (Plasmodium falciparum [8]) does the source give for `CC(C)N1CCN(Cc2cc(Nc3ccnc4cc(Cl)ccc34)ccc2Cl)CC1` here?
Answer: 6.4 nM

Question: And the IC50 (Plasmodium falciparum [9])?
Answer: 9.1 nM

Question: And the logP [12]?
Answer: 5.14

Question: And the IC50 [13]?
Answer: 1.66 molar ratio

Question: Which IC50 (Plasmodium falciparum [1]) does the source give for `CCCN(CCC)Cc1cc(Nc2ccnc3cc(Cl)ccc23)ccc1F` here?
Answer: 85.2 nM

Question: What does the source list for `CCN(CC)Cc1cc(Nc2ccnc3cc(Cl)ccc23)ccc1Cl`?
Answer: IC50 (Plasmodium falciparum [1]): 30.4 nM; IC50 (Plasmodium falciparum [8]): 10.2 nM; IC50 (Plasmodium falciparum [9]): 12.3 nM

Question: Which IC50 (Plasmodium falciparum [8]) does the source give for `Clc1ccc2c(Nc3ccc(Cl)c(CN4CCCC4)c3)ccnc2c1` here?
Answer: 4.2 nM

Question: And the IC50 (Plasmodium falciparum [9])?
Answer: 15.2 nM

Question: What does the source list for `C=C[C@H]1CN2CC[C@H]1C[C@H]2[C@H](O)c1ccnc2ccc(OC)cc12`?
Answer: log Ks (Heme [14]): 4.4; log Ks (Heme [15]): 4.1

Question: With `O=C(NCc1cc([N+](=O)[O-])ccc1F)c1ncc[nH]1` as the molecule, how does the IC50 (Plasmodium falciparum [8]) read?
Answer: 5 nM

Question: What about the IC50 (Plasmodium falciparum [9]) of the same molecule?
Answer: 10.1 nM

Question: With `CC(C)(C)NCc1cccc(Nc2ccnc3cc(Cl)ccc23)c1` as the molecule, how does the IC50 [13] read?
Answer: 1.65 molar ratio

Question: What does the source list for `OC(c1cc(C(F)(F)F)nc2c(C(F)(F)F)cccc12)C1CCCCN1` (stereo not given)?
Answer: log Ks (Heme [14]): 3.84; log Ks (Heme [15]): 3.17
